Measured values reported in publication PMC7206119, “RIP1 inhibition blocks inflammatory diseases but not tumor growth or metastases” (Cell Death and Differentiation, 2019).

Key:
Assay in all cases: biochemical
Parameters in all cases: DiscoverX kinase panel, active-site competition binding (KINOMEscan type), percent of control at one concentration
Settings in all cases: competition binding, percent of control
[1] = target: T1, ABL1(F317I)-phosphorylated (Homo sapiens, UniProt P00519, F317I)
T1 construct: phosphorylated
T1 sequence (P00519 whole entry F317I): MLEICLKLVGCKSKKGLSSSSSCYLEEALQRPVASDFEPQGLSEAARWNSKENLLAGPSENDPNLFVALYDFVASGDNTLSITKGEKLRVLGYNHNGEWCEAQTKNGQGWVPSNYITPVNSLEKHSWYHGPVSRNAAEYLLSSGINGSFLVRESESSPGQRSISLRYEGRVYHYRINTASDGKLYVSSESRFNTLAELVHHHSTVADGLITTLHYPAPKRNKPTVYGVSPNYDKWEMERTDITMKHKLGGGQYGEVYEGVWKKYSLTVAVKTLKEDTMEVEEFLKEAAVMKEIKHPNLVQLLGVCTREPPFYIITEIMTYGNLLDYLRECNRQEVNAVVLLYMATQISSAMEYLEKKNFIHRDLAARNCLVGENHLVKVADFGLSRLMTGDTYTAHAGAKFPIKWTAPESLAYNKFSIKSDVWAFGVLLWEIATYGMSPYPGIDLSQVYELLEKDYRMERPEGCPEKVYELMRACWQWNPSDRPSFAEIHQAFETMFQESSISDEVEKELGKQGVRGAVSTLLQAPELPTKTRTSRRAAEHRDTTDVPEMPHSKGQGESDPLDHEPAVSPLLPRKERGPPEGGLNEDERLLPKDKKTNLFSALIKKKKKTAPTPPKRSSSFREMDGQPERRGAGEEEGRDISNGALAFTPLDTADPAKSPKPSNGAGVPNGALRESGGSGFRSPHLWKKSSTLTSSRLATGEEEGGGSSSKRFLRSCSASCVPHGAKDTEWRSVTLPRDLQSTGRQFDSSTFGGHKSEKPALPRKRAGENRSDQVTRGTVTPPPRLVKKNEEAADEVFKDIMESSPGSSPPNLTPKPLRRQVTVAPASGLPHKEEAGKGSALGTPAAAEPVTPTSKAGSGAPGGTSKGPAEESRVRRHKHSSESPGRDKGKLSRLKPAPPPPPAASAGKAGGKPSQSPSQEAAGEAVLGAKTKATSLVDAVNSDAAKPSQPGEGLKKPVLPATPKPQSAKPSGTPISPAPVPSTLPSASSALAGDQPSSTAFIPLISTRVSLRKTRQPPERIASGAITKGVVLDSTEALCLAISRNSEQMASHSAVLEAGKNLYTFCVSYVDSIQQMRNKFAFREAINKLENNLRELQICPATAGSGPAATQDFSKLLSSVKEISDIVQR

[2] = target: AKT3 (Homo sapiens, UniProt Q9Y243)
[3] = target: ANKK1 (Homo sapiens, UniProt Q8NFD2)
[4] = target: CDK7 (Homo sapiens, UniProt P50613)
CDK7, sequence (P50613 whole entry): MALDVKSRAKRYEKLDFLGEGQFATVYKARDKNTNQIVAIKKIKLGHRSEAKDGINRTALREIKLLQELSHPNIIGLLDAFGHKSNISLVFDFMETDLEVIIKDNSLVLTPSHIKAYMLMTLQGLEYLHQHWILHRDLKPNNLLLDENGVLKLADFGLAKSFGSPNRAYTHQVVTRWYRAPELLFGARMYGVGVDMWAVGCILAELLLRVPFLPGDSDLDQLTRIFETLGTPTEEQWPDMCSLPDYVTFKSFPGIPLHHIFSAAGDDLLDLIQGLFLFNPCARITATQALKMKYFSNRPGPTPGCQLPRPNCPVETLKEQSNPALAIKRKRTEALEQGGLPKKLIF

[5] = target: CLK4 (Homo sapiens, UniProt Q9HAZ1)
[6] = target: EPHA3 (Homo sapiens, UniProt P29320)
EPHA3, sequence (P29320 whole entry): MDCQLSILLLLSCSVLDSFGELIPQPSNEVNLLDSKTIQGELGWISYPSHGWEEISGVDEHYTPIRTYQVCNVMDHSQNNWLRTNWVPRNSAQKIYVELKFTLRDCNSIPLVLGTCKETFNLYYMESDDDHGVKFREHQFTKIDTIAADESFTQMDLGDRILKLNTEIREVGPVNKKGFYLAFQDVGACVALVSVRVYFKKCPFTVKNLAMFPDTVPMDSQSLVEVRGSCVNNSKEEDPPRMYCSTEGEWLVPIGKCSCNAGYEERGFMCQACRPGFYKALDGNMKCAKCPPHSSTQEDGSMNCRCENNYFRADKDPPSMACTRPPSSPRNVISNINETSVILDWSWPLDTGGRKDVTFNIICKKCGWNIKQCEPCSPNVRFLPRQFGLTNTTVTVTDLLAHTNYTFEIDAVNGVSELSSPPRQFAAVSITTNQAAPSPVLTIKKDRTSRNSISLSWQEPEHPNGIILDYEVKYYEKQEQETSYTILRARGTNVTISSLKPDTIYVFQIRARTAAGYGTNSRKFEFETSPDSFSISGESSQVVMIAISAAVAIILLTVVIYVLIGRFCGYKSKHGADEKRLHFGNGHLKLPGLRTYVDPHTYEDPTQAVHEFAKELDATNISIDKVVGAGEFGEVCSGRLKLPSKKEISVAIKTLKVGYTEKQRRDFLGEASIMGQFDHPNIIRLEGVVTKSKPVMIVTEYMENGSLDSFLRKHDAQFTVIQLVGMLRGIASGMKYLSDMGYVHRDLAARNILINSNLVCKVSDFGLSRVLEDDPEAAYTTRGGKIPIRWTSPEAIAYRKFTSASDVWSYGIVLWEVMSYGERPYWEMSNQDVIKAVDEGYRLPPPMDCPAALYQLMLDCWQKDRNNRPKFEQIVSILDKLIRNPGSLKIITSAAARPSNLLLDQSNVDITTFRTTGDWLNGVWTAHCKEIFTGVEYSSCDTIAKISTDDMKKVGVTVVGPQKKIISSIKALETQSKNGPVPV

[7] = target: ERBB3 (Homo sapiens, UniProt P21860)
[8] = target: GRK1 (Homo sapiens, UniProt Q15835)
[9] = target: HIPK2 (Homo sapiens, UniProt Q9H2X6)
HIPK2, sequence (Q9H2X6 whole entry): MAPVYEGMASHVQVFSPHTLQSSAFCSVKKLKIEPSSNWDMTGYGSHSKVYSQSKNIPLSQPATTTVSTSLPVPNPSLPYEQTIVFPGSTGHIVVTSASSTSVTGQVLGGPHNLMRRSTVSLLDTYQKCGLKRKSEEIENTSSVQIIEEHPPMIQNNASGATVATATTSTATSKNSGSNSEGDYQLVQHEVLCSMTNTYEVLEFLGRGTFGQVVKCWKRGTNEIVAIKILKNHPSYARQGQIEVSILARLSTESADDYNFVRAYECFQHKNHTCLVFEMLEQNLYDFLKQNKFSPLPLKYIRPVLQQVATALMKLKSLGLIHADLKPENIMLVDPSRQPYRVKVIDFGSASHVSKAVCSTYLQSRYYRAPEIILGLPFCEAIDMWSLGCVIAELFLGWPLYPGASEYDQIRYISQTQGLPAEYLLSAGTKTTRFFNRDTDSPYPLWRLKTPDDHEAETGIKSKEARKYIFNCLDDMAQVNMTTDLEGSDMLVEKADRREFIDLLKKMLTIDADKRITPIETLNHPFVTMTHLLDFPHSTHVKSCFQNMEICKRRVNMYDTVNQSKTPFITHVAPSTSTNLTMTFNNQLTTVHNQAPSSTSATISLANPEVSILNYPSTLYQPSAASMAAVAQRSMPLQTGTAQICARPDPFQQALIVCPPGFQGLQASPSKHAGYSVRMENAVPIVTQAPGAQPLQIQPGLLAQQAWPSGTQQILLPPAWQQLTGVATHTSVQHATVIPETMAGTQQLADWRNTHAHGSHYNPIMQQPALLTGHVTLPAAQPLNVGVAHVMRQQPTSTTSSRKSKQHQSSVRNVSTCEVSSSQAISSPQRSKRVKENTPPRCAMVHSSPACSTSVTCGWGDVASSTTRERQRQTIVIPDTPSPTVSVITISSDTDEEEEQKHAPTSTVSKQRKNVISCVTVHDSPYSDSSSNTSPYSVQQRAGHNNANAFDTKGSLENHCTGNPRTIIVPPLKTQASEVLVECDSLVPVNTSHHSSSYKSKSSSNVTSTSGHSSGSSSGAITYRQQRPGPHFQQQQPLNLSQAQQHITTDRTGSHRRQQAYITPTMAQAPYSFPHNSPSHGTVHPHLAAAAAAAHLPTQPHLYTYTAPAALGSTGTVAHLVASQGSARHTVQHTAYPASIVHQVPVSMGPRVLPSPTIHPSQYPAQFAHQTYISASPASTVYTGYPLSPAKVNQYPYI

[10] = target: MAST1 (Homo sapiens, UniProt Q9Y2H9)
[11] = target: T2, MINK (Homo sapiens, UniProt Q8N4C8)
T2 construct: gene MINK1

[12] = target: MKNK2 (Homo sapiens, UniProt Q9HBH9)
[13] = target: T3, NDR1 (Homo sapiens, UniProt Q15208)
T3 construct: gene STK38

[14] = target: NEK11 (Homo sapiens, UniProt Q8NG66)
NEK11, sequence (Q8NG66 whole entry): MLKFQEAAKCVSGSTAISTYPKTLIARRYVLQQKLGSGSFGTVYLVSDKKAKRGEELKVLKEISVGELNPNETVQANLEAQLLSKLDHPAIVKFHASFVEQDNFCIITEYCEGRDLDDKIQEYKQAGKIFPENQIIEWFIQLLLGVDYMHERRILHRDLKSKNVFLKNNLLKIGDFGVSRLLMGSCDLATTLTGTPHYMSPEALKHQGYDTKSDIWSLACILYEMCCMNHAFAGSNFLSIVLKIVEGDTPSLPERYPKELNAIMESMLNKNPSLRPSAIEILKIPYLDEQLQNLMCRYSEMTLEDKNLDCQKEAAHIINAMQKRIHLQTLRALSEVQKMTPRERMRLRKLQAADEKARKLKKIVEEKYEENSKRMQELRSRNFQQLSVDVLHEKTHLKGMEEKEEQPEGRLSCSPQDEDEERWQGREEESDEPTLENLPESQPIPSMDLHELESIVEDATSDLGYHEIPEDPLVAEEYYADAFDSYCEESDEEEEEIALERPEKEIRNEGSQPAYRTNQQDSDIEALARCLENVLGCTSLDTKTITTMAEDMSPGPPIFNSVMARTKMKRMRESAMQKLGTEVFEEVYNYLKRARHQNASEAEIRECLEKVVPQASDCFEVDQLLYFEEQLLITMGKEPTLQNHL

[15] = target: NEK4 (Homo sapiens, UniProt P51957)
[16] = target: T4, NIK (Homo sapiens, UniProt Q99558)
T4 construct: gene MAP3K14

[17] = target: PIK3CA (Homo sapiens, UniProt P42336)
[18] = target: ROCK1 (Homo sapiens, UniProt Q13464)
[19] = target: TNK1 (Homo sapiens, UniProt Q13470)
[20] = target: TSSK3 (Homo sapiens, UniProt Q96PN8)
TSSK3, sequence (Q96PN8 whole entry): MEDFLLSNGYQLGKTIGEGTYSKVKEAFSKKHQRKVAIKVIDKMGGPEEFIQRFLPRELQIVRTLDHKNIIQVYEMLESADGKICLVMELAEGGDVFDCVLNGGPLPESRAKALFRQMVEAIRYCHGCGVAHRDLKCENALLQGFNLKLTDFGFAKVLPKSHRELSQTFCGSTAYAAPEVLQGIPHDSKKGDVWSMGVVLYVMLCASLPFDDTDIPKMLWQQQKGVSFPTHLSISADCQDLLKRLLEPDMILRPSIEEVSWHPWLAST

[21] = target: TXK (Homo sapiens, UniProt P42681)
[22] = target: T5, YANK2 (Homo sapiens, UniProt Q9NY57)
T5 construct: gene STK32B
T5 sequence (Q9NY57 whole entry): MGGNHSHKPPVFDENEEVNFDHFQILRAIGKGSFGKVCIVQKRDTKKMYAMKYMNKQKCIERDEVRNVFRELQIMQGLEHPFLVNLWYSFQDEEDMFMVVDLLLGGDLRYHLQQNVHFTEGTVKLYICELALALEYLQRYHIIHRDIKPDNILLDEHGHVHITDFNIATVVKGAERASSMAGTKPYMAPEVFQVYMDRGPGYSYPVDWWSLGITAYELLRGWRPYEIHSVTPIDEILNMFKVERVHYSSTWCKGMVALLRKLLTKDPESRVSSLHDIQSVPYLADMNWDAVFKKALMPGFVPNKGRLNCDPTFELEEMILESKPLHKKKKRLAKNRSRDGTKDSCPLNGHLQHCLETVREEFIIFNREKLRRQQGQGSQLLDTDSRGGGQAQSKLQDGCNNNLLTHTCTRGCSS

SMILES: COc1cc2c(cn1)N(C)C(=O)[C@@H](NC(=O)c1nc3n(n1)[C@H](c1ccccc1)CC3)CC2 [GNE684, (S)-N-((S)-7-methoxy-1-methyl-2-oxo-2,3,4,5-tetrahydro-1H-pyrido[3,4-b]azepin-3-yl)-5-phenyl-6,7-dihydro-5H-pyrrolo[1,2-b][1,2,4]triazole-2-carboxamide]
- remaining binding at 10 µM [1]: 100%
- remaining binding at 10 µM [2]: 75%
- remaining binding at 10 µM [3]: 98%
- remaining binding at 10 µM [4]: 75%
- remaining binding at 10 µM [5]: 95%
- remaining binding at 10 µM [6]: 91%
- remaining binding at 10 µM [7]: 96%
- remaining binding at 10 µM [8]: 67%
- remaining binding at 10 µM [9]: 82%
- remaining binding at 10 µM [10]: 94%
- remaining binding at 10 µM [11]: 100%
- remaining binding at 10 µM [12]: 96%
- remaining binding at 10 µM [13]: 79%
- remaining binding at 10 µM [14]: 100%
- remaining binding at 10 µM [15]: 100%
- remaining binding at 10 µM [16]: 100%
- remaining binding at 10 µM [17]: 100%
- remaining binding at 10 µM [18]: 100%
- remaining binding at 10 µM [19]: 100%
- remaining binding at 10 µM [20]: 96%
- remaining binding at 10 µM [21]: 100%
- remaining binding at 10 µM [22]: 84%
